Results on one compound are retold here after ChEMBL document CHEMBL1201862, “PubChem BioAssay data set” (2004).

Experiment [1] can be described thus: NIH-3T3 fibroblast cytotoxicity, dose response, cytotoxicity control, cell-based, fluorescence, Alamar Blue, secondary assay (AID 2327).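 Also: NIH-3T3 mouse fibroblasts cultured with fluconazole at 8 µg/mL.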 The class given is functional. (Resazurin is reduced to fluorescent resorufin, in cell work by metabolically active cells.)
The target in experiment [2] is Polyadenylate-binding protein 1 (Homo sapiens, UniProt P11940). As to the kind of experiment: PABP1 MLLE–PAM2 binding inhibitor potency, dose response, biochemical, fluorescence polarization, FITC-PAM2 peptide (AID 602259). The class given is functional. The settings on record: read-out: IC50_Mean.
Experiment [3] deals with Dual specificity tyrosine-phosphorylation-regulated kinase 1A (Rattus norvegicus, UniProt Q63470). Type of experiment: biochemical, Homo sapiens.
The target of experiment [4] is T1, Exodeoxyribonuclease V (Escherichia coli (strain K12), UniProt P04993+P07648+P08394).
T1 sequence (P04993 whole entry): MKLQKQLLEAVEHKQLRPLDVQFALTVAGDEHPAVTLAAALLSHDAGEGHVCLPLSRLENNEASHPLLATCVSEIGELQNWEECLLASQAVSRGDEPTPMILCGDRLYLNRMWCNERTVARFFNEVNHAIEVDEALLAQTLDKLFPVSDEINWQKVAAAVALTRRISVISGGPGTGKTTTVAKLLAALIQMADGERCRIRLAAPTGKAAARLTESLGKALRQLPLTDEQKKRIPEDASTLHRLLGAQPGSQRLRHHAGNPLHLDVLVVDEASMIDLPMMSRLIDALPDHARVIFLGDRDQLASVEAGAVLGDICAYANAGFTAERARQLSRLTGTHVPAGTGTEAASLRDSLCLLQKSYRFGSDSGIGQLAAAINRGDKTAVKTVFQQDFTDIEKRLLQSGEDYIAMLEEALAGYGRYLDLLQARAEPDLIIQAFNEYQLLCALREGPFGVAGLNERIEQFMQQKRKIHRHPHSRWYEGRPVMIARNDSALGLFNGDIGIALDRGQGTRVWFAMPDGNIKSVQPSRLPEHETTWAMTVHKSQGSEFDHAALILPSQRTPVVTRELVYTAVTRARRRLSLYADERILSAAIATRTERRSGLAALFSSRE
T1 sequence (P07648 whole entry): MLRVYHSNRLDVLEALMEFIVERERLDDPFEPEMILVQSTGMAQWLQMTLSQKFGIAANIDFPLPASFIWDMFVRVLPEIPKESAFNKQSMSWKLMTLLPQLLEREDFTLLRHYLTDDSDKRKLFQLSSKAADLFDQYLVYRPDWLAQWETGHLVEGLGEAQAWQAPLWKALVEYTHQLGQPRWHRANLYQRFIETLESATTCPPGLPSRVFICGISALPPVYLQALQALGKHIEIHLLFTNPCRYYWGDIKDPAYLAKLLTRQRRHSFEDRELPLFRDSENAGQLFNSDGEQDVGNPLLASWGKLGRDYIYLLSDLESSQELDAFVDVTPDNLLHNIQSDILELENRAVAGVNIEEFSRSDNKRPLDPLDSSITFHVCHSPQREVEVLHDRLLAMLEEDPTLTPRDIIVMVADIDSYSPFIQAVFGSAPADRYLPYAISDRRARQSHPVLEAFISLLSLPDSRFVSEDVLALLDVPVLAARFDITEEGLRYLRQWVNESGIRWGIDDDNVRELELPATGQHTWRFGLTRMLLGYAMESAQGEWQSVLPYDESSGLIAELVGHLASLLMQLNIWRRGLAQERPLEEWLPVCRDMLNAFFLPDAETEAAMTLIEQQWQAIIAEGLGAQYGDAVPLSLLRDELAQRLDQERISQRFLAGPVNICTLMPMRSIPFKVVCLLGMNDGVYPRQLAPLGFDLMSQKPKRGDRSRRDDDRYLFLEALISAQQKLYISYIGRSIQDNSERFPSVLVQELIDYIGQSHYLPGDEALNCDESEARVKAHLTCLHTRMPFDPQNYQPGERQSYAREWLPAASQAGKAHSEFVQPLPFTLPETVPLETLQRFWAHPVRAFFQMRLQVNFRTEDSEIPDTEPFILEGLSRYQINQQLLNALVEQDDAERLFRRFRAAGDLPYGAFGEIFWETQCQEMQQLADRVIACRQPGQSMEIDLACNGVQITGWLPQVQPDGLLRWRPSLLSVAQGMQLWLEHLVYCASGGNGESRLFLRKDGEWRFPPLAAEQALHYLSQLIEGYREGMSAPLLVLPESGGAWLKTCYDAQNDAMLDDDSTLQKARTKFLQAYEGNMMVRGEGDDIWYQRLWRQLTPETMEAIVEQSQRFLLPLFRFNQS
T1 sequence (P08394 whole entry): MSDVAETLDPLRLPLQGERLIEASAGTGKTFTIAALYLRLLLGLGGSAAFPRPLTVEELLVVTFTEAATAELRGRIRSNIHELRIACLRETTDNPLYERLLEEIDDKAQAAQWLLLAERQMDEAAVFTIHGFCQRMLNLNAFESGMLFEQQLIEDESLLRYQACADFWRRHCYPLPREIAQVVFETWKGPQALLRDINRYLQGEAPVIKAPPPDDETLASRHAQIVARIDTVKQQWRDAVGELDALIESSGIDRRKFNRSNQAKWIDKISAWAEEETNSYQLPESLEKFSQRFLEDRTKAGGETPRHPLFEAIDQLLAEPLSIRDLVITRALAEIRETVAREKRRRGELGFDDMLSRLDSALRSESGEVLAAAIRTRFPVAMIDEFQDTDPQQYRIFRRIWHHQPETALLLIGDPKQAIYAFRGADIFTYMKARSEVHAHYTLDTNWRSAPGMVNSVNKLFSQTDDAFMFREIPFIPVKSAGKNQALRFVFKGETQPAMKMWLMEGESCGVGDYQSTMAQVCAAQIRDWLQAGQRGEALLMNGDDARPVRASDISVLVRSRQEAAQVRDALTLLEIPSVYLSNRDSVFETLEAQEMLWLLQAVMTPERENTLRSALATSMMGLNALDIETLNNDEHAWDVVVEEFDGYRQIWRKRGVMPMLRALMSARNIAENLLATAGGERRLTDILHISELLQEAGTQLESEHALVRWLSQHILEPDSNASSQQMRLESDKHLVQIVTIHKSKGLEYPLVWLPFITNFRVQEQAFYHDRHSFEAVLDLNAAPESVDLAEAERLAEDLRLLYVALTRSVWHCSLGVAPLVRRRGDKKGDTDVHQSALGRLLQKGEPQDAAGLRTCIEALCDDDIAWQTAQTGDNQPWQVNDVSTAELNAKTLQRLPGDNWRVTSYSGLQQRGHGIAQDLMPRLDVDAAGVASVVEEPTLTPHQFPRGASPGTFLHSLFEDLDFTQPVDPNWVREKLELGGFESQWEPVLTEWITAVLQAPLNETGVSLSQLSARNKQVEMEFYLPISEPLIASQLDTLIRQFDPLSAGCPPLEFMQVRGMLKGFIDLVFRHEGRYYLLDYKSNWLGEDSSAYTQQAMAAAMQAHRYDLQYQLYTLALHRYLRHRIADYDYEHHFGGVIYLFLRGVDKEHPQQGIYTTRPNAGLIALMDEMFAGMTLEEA
Briefly: E. coli RecBCD inhibitors, dose response, counter-screen for AddAB inhibitor project, absorbance, V66 E. coli, mutant T4 phage (AID 492957). The class given is functional, cell-based, Escherichia coli str. K-12 substr. MG1655. (In general: A counterscreen serves to expose hits that act by an unwanted route or on another target.)

Calls of active or inactive are those of the source.

Chain of Polyadenylate-binding protein 1 (P11940 whole entry): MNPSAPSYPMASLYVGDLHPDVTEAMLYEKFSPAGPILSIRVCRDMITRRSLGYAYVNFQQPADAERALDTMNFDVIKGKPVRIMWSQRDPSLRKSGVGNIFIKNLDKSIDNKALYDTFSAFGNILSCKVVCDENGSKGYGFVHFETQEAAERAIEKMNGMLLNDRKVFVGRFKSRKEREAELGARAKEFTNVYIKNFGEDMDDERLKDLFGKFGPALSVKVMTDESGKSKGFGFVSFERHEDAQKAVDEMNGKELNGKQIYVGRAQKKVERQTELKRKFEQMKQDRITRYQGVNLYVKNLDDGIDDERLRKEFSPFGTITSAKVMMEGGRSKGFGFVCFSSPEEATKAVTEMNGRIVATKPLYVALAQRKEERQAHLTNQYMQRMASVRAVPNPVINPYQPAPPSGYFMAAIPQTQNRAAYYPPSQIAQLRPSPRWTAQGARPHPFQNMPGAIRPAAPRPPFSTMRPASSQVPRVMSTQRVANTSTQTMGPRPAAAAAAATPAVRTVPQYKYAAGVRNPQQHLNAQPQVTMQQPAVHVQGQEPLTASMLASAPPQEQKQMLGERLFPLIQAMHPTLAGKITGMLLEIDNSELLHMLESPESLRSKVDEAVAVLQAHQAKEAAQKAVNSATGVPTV

In the case of `CN1CCc2cc3c(c4c2[C@H]1[C@H](O)c1ccccc1-4)OCO3`, in experiment [1], the half-maximal effective concentration (EC50) (as a rule, the concentration needed to bring the measured effect to its halfway point) was 75.6 µM (active). Moreover, the IC50 in experiment [2] was 25.8 µM (inactive); in experiment [4] it was > 119 µM (inactive). The AC50 (as a rule, the midpoint of the concentration-response curve, whichever way the signal moves) in experiment [3] is 0.877 µM (active).
